Where two headings read alike, the source gives them in different places.
Experiments:
[1] = target: caspase-9 (Homo sapiens (Human), UniProt P55211); test: Caspase-9 Inhibitor Drug Screening Kit, fluorometric enzymatic assay; details: for IC50: read-out: Caspase enzymatic activity, IC50 (uM) Caspase 9, 30-minute incubation at 37° C., AFC liberation; for inhibitory activity for caspase-9 (in words): tested dose-range 1-3333 nM
Procedure: (§1) The level of inhibition of caspase-1, -3, -5, -7, -9 activity was determined by comparison of the relative fluorescence intensity in samples with or without the compound.

[2] = target: caspase-7 (Homo sapiens (Human), UniProt P55210); test: Caspase-7 Inhibitor Drug Screening Kit, fluorometric enzymatic assay; details: for IC50: read-out: Caspase enzymatic activity, IC50 (uM) Caspase 7, 30-minute incubation at 37° C., AFC liberation; for selectivity of caspase-3 over caspase-7 (IC50 fold difference): based on the IC50 values
Chain of caspase-7 (P55210 24-198): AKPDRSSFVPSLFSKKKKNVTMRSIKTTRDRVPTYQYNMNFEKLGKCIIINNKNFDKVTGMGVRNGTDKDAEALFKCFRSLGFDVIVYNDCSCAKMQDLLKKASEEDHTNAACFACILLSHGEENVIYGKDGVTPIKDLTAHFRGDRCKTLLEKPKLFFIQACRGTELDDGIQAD
Chain of caspase-7 (P55210 207-303): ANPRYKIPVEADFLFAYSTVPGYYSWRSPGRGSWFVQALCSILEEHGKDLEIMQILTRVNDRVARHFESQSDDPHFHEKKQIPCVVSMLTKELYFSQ
Procedure: as §1

[3] = target: caspase-3 (Homo sapiens (Human), UniProt P42574); test: Caspase-3 Inhibitor Drug Screening Kit, fluorometric enzymatic assay; assay type: biochemical; details: for IC50: 30-minute incubation at 37° C., AFC liberation
Chain of caspase-3 (P42574 29-175): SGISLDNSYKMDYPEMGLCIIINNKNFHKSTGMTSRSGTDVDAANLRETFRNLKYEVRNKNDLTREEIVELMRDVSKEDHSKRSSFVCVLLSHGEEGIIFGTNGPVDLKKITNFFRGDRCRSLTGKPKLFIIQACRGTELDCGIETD
Chain of caspase-3 (P42574 176-277): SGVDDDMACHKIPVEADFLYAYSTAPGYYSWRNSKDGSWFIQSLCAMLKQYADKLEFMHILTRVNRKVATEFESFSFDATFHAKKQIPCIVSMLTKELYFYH
Procedure: as §1

[4] = target: caspase-5 (Homo sapiens (Human), UniProt P51878); test: Caspase-5 Inhibitor Drug Screening Kit, fluorometric enzymatic assay; details: for IC50: read-out: Caspase enzymatic activity, IC50 (uM) Caspase 5, 30-minute incubation at 37° C., AFC liberation; for inhibitory activity for caspase-5 (in words): tested dose-range 1-3333 nM
Chain of caspase-5 (P51878 137-327): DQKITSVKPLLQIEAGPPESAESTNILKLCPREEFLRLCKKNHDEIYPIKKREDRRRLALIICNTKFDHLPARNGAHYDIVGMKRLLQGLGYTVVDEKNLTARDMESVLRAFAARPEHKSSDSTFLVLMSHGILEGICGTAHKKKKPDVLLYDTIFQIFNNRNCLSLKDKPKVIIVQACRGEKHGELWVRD
Chain of caspase-5 (P51878 347-434): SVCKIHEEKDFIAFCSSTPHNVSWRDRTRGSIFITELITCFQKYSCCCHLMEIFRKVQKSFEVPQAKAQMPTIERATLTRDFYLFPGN
Procedure: as §1

[5] = target: caspase-1 (Homo sapiens (Human), UniProt P29466); test: Caspase-1 Inhibitor Drug Screening Kit, fluorometric enzymatic assay; details: for IC50: read-out: Caspase enzymatic activity, IC50 (uM) Caspase 1, 30-minute incubation at 37° C., AFC liberation; for inhibitory activity for caspase-1 (in words): tested dose-range 1-3333 nM
Chain of caspase-1 (P29466 120-297): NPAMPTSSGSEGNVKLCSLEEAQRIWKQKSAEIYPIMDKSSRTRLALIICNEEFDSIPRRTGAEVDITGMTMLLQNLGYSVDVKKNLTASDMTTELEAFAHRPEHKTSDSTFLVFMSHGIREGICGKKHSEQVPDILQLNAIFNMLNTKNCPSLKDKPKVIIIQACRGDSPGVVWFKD
Chain of caspase-1 (P29466 317-404): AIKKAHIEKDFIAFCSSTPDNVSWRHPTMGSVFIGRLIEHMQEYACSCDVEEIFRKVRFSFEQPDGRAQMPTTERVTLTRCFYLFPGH
Procedure: as §1

[6] = tested on: Hela cells; test: Inhibition of proteolytic cleavage of PARP in staurosporine-treated live Hela cells; assay type: cell-based; details: for inhibition at 50 µM: Homo sapiens; for effectivity in inhibiting PARP cleavage (in words): relative to DEVD-fmk
Procedure: To test the efficacy of caspase-3 inhibitors at the cellular level, the ability of selected compounds to inhibit the proteolytic cleavage of PARP (poly ADP-ribose polymerase) was evaluated in live Hela cells.
Briefly, in this assay Hela cells are seeded in 96 well plates and incubated for 4 hours with staurosporine, a well characterized inducer of apoptosis, alone or together with different concentrations of compound (50, 25, 10 and 3 uM). After formaldehyde-based fixation, the cells are stained with a fluorescein-labeled anti-cleaved PARP antibody (Cell signaling, Cat#: 9547) and counterstained with Hoechst33342 (Invitrogen, Cat#: H3570) to mark all nuclei. Fluorescence images are taken on a Cellomics™ microscope system (Thermo Scientific, Pittsburgh, USA) with the Hoechst stain in the blue channel and the cleaved PARP antibody stain in the green channel. The percentage of cleaved PARP positive cells is determined by calculating the ratio between nuclei with a cleaved PARP antibody staining above a certain threshold and all (Hoechst positive) nuclei. The efficacy of caspase-3 inhibition is determined by calculating the ratio between cleaved PARP positive cells after staurosporine incubation together with compounds and staurosporine incubation without compounds.

[7] = target: Caspase 3/7 (Glo3/7); test: Glo3/7 assay
[8] = 50 uM, relative to DEVDFMK, read-out: % of inhibition with compound relative to DEVDFMK
[9] = read-out: % inhibition of PARP cleavage at 50 uM compound, staurosporine 4 hours, 50 uM compound

Chain of caspase-9 (P55211 1-315): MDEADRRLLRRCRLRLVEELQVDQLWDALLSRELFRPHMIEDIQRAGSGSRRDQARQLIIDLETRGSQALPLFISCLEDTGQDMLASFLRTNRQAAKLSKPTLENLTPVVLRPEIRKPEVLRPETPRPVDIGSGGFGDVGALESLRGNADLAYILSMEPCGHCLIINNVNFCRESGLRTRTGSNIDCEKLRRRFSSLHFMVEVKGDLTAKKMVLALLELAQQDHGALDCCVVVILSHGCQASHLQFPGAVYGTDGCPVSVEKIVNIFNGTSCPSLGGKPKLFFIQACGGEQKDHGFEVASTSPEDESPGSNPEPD
Chain of caspase-9 (P55211 331-416): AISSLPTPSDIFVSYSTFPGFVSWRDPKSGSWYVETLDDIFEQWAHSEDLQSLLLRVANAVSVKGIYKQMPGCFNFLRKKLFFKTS

IC50 [1]	IC50 [2]	activity against caspase-3 (in words) [3]	IC50 [3]	IC50 [4]	IC50 [5]	selectivity of caspase-3 over caspase-7 (IC50 fold difference) [2]	IC50 [7]	inhibition at 10 µM ([1]; read-out: Inhibition of Caspase-9)	inhibitory activity for caspase-9 (in words) [1]	inhibition at 10 µM ([4]; read-out: Inhibition of Caspase-5)	inhibitory activity for caspase-5 (in words) [4]	inhibition at 10 µM ([5]; read-out: Inhibition of Caspase-1)	inhibitory activity for caspase-1 (in words) [5]	fold less efficiency against caspase-1 than against group III caspases [5]	Compound	inhibition at 50 µM [6, 8]	inhibition at 50 µM [6, 9]	reduction of the percentage of PARP positive cells after staurosporine treatment [6]	effectivity in inhibiting PARP cleavage (in words) [6]
> 10 µM	> 10 µM	–	0.3 µM	> 10 µM	–	–	–	–	–	–	–	–	–	–	CC(C)[C@H](NC(=O)[C@@H](Cc1ccc2ccccc2n1)NC(=O)[C@H](CC(=O)O)NC(=O)OCc1ccccc1)C(=O)N[C@H](/C=C/S(=O)(=O)c1ccccc1)CC(=O)O (stereo in doubt) [Compound 70, Z-Asp-(D,L Ala(2′-quinolyl))-Val- Aspphenyl vinylsulfone]	–	–	–	–
> 10 µM	8.9 µM	–	–	> 10 µM	> 10 µM	–	–	–	–	–	–	–	–	–	CC(C)[C@H](NC(=O)[C@@H](Cc1ccc2ccccc2n1)NC(=O)[C@H](CC(=O)O)NC(=O)OCc1ccccc1)C(=O)N[C@H](/C=C/S(C)(=O)=O)CC(=O)O (stereo in doubt) [Compound 71, Z-Asp-(D,L Ala(2′-quinolyl))-Val- Aspmethyl vinylsulfone]	–	–	–	–
> 3.33 µM	–	–	–	> 3.33 µM	> 3.33 µM	~50 fold	0.9 µM	–	No significant inhibitory activity	–	No significant inhibitory activity	–	No significant inhibitory activity	–	CC(C)[C@H](NC(=O)[C@H](Cc1ccc2ccccc2n1)NC(=O)[C@H](CC(=O)O)NC(=O)OCc1ccccc1)C(=O)N[C@H](/C=C/S(=O)(=O)c1ccccc1)CC(=O)O [Compound 63, Z-Asp-Ala(2′-quinolyl)-Val-Aspphenyl vinyl sulfone]	15%	10%	–	–
–	–	–	–	> 3.33 µM	–	–	0.2 µM	–	–	–	–	–	–	–	CC(C)[C@H](NC(=O)[C@H](Cc1ccc2ccccc2n1)NC(=O)[C@H](CC(=O)O)NC(=O)OCc1ccccc1)C(=O)N[C@H](/C=C/S(=O)(=O)Oc1ccccc1)CC(=O)O [Compound 65, Z-Asp-Ala(2′-quinolyl)-Val-Aspphenoxy vinyl sulfone]	40%	30%	–	–

Continued, molecule first:

Compound	IC50 [1]	IC50 [2]	activity against caspase-3 (in words) [3]	IC50 [3]	IC50 [4]	IC50 [5]	selectivity of caspase-3 over caspase-7 (IC50 fold difference) [2]	IC50 [7]	inhibition at 10 µM ([1]; read-out: Inhibition of Caspase-9)	inhibitory activity for caspase-9 (in words) [1]	inhibition at 10 µM ([4]; read-out: Inhibition of Caspase-5)	inhibitory activity for caspase-5 (in words) [4]	inhibition at 10 µM ([5]; read-out: Inhibition of Caspase-1)	inhibitory activity for caspase-1 (in words) [5]	fold less efficiency against caspase-1 than against group III caspases [5]	inhibition at 50 µM [6, 8]	inhibition at 50 µM [6, 9]	reduction of the percentage of PARP positive cells after staurosporine treatment [6]	effectivity in inhibiting PARP cleavage (in words) [6]
CC(C)[C@H](NC(=O)OCc1ccccc1)C(=O)N[C@H](/C=C/S(C)(=O)=O)CC(=O)O [Compound 61, Z-Val-Aspmethyl vinyl sulfone]	> 3.33 µM	> 3.33 µM	abolished completely the activity	> 3.33 µM	> 3.33 µM	> 3.33 µM	–	–	–	–	–	–	–	–	–	5%	5%	–	–
CC(C)[C@H](NC(=O)[C@H](Cc1ccc(O)cc1)NC(=O)OCc1ccccc1)C(=O)N[C@@H](C)C(=O)N[C@H](/C=C/S(=O)(=O)c1ccccc1)CC(=O)O [Compound 96, Z-Tyr-Val-Ala-Asp phenyl vinyl sulfone]	> 10 µM	> 10 µM	–	> 10 µM	> 3.33 µM	–	–	–	–	–	–	–	–	–	–	–	–	–	–
CC(C)[C@H](NC(=O)[C@@H](NC(=O)[C@H](CC(=O)O)NC(=O)OCc1ccccc1)c1ccccc1)C(=O)N[C@H](/C=C/S(C)(=O)=O)CC(=O)O [Compound 53, Z-Asp-Phg-Val-Aspmethyl vinyl sulfone]	> 10 µM	–	–	–	> 10 µM	–	about 12 fold	0.1 µM	–	–	–	–	–	–	–	80%	55%	more than 50%	highly effective relative to DEVD-fmk
CC(C)[C@H](NC(=O)[C@H](Cc1ccc2ccccc2n1)NC(=O)[C@H](CC(=O)O)NC(=O)OCc1ccccc1)C(=O)N[C@H](/C=C/S(C)(=O)=O)CC(=O)O [Compound 55, Z-Asp-Ala(2′-quinolyl)-Val-Aspmethyl vinyl sulfone]	> 3.33 µM	–	–	–	> 10 µM	> 10 µM	–	0.1 µM	57%	No significant inhibitory activity	21%	No significant inhibitory activity	25%	No significant inhibitory activity	–	60%	40%	–	showing effectivity
COC(=O)C[C@@H](/C=C/S(C)(=O)=O)NC(=O)[C@@H](NC(=O)[C@@H](NC(=O)[C@H](CC(=O)OC)NC(=O)OCc1ccccc1)C1Cc2ccccc2C1)C(C)C [Compound 51, Z-Asp(β-methyl)-Indanylglycine-Val- Asp(β-methyl)methyl vinyl sulfone]	> 3 µM	> 3 µM	–	–	> 3 µM	> 3 µM	–	–	–	–	–	–	–	–	–	80%	65%	–	–
CC(C)[C@H](NC(=O)[C@H](Cc1ccc(O)cc1)NC(=O)[C@H](CC(=O)O)NC(=O)OCc1ccccc1)C(=O)N[C@H](/C=C/S(C)(=O)=O)CC(=O)O [Compound 76, Z-Asp-Tyr-Val-Aspmethyl vinyl sulfone]	> 3.33 µM	–	–	–	> 3.33 µM	> 3.33 µM	–	0.04 µM	–	–	–	–	–	–	–	60%	55%	more than 50%	–
CC(C)[C@H](NC(=O)[C@@H](NC(=O)[C@H](CC(=O)O)NC(=O)OCc1ccccc1)C1Cc2ccccc2C1)C(=O)N[C@H](/C=C/S(C)(=O)=O)CC(=O)O [Compound 57, Z-Asp-Indanylglycine-Val-Aspmethyl vinyl sulfone]	> 3.33 µM	–	–	–	> 3.33 µM	–	–	0.1 µM	–	–	–	–	–	–	about 29 fold	70%	65%	–	–
CC(C)[C@H](NC(=O)[C@H](Cc1ccc2ccccc2n1)NC(=O)[C@H](CC(=O)O)NC(=O)OCc1ccccc1)C(=O)N[C@H](/C=C(\Cl)S(C)(=O)=O)CC(=O)O [Compound 48, Z-Asp-Ala(2′-quinolyl)-Val-Asp- αchlorovinyl methylsulfone]	–	–	–	–	> 3.33 µM	> 3.33 µM	–	0.1 µM	–	–	–	–	–	–	–	65%	45%	–	showing effectivity
